Laboratory results: ChEMBL document CHEMBL4406837, “Cyclin dependent kinase (CDK) inhibitors as anticancer drugs: Recent advances (2015-2019)” (Bioorg Med Chem Lett, 2019)

Experiments:
[1] = target: T1, CDK7/Cyclin H/MNAT1 (Homo sapiens, UniProt P50613); test: Competitive irreversible inhibition of CDK7/cyclinH/MAT1 (unknown origin); assay type: protein-complex assay
[2] = target: T2, CDK12/Cyclin K (Homo sapiens, UniProt Q9NYV4); test: Competitive irreversible inhibition of CDK12/cyclinK (unknown origin) in presence of Km ATP; assay type: protein-complex assay
[3] = target: T3, CDK9/cyclin T1 (Homo sapiens, UniProt P50750); test: Competitive irreversible inhibition of CDK9/cyclin T (unknown origin) in presence of Km ATP; assay type: protein-complex assay
[4] = target: T4, CDK7/Cyclin H/MNAT1 (Homo sapiens) (UniProt P51946+P50613+P51948); test: Competitive irreversible inhibition of CDK7/cyclinH/MAT1 (unknown origin) assessed as inactivation constant using 5-FAM YSPTSPSYSPTSPSYSPTSPSKKKK as substrate; assay type: protein-complex assay
[5] = target: T1, CDK7/Cyclin H/MNAT1; test: Competitive irreversible inhibition of CDK7/cyclinH/MAT1 (unknown origin) using 5-FAM YSPTSPSYSPTSPSYSPTSPSKKKK as substrate; assay type: protein-complex assay
[6] = target: T4, CDK7/Cyclin H/MNAT1 (Homo sapiens); test: Ratio of Ki CDK7/cyclinH/MAT1 (unknown origin) to Kinact CDK7/cyclinH/MAT1 (unknown origin) assessed as inactivation constant; assay type: protein-complex assay
[7] = tested on: HL-60; test: Antiproliferative activity against human HL60 cells after 72 hrs by CellTiter-Glo assay; assay type: functional, cell-based; settings: HL-60, 72 h
[8] = Clearance in mouse; assay type: ADME, organism-based; settings: in vivo
[9] = target: T1, CDK7/Cyclin H/MNAT1; test: Competitive irreversible inhibition of CDK7/cyclinH/MAT1 (unknown origin) using 5-FAM YSPTSPSYSPTSPSYSPTSPSKKKK as substrate in presence of Km ATP; assay type: protein-complex assay
[10] = target: T1, CDK7/Cyclin H/MNAT1; test: Competitive irreversible inhibition of CDK7/cyclinH/MAT1 (unknown origin) using 5-FAM YSPTSPSYSPTSPSYSPTSPSKKKK as substrate in presence of 2 mM ATP; assay type: protein-complex assay
[11] = tested on: HCT-116; test: Anti-tumor activity in human HCT116 cells xenografted in in vivo animal model assessed tumor growth inhibition at 100 mg/kg, qd after 13 days relative to control; assay type: functional; settings: HCT-116, 312 h, read-out: TGI
[12] = target: Cyclin-dependent kinase 6 (Homo sapiens, UniProt Q00534); test: Competitive reversible inhibition of CDK6 (unknown origin)
[13] = target: Cyclin-dependent kinase 8 (Homo sapiens, UniProt P49336); test: Competitive reversible inhibition of CDK8 (unknown origin)
[14] = target: Cyclin-dependent kinase 4 (Homo sapiens, UniProt P11802); test: Competitive reversible inhibition of CDK4 (unknown origin)
[15] = target: Cyclin-dependent kinase 5 (Homo sapiens, UniProt Q00535); test: Competitive reversible inhibition of CDK5 (unknown origin)
[16] = target: T1, CDK7/Cyclin H/MNAT1; test: Competitive irreversible inhibition of CDK7/cyclinH/MAT1 (unknown origin) in presence of 1 mM ATP; assay type: protein-complex assay
[17] = target: T5, Cyclin-dependent kinase 2/cyclin E1 (Homo sapiens, UniProt P24941); test: Competitive reversible inhibition of CDK2/cyclin E (unknown origin); assay type: protein-complex assay
[18] = target: Cyclin-dependent kinase 14/Cyclin-Y (Homo sapiens, UniProt O94921+Q8ND76); test: Competitive irreversible inhibition of CDK14/cyclin Y (unknown origin) in presence of Km ATP; assay type: protein-complex assay
[19] = tested on: MCF7; test: Antiproliferative activity against human MCF7 cells; assay type: functional, cell-based
[20] = tested on: OVCAR-3; test: Antiproliferative activity against human OVCAR3 cells; assay type: functional, cell-based
[21] = Antiproliferative activity against imatinib-resistant human K562R-2 cells; assay type: functional
[22] = target: T6, Cyclin-dependent kinase 2 (Homo sapiens, UniProt P24941); test: Inhibition of CDK2 (unknown origin)
[23] = tested on: K562; test: Antiproliferative activity against wild type human K562 cells; assay type: functional, cell-based
[24] = Antiproliferative activity against imatinib-resistant human K562R-1 cells; assay type: functional
[25] = target: Cyclin-dependent kinase 1 (Homo sapiens) (UniProt P06493); test: Inhibition of CDK1 (unknown origin) relative to control; settings: concentration not given here
[26] = target: T6, Cyclin-dependent kinase 2; test: Inhibition of CDK2 (unknown origin) relative to control; settings: concentration not given here
[27] = tested on: Hs 683; test: Antiproliferative activity against human Hs683 cells; assay type: functional, cell-based
[28] = target: T3, CDK9/cyclin T1; test: Competitive irreversible inhibition of CDK9/cyclin T (unknown origin); assay type: protein-complex assay
[29] = target: T5, Cyclin-dependent kinase 2/cyclin E1; test: Competitive irreversible inhibition of CDK2/cyclin E (unknown origin); assay type: protein-complex assay
[30] = target: T2, CDK12/Cyclin K
[31] = target: Cyclin-dependent kinase 13/Cyclin-K (Homo sapiens, UniProt Q14004)
[32] = target: Serine/threonine-protein kinase Nek10 (Homo sapiens, UniProt Q6ZWH5); test: Binding affinity to NEK10 (unknown origin)
[33] = target: NUAK family SNF1-like kinase 2 (Homo sapiens, UniProt Q9H093); test: Binding affinity to SNARK (unknown origin)
[34] = target: Receptor-type tyrosine-protein kinase FLT3 (Homo sapiens, UniProt P36888, D835V); test: Binding affinity to human FLT3 D835V mutant
[35] = target: Receptor-type tyrosine-protein kinase FLT3 (Homo sapiens, UniProt P36888, ITD); test: Binding affinity to human FLT3 ITD mutant
[36] = target: CDK9/Cyclin-H (Homo sapiens, UniProt P50750+P51946); test: Inhibition of CDK9/cyclin H (unknown origin); assay type: protein-complex assay
[37] = target: Cyclin-dependent kinase 4/cyclin D1 (Homo sapiens, UniProt P11802); test: Inhibition of human CDK4/cyclinD1; assay type: protein-complex assay
[38] = target: T5, Cyclin-dependent kinase 2/cyclin E1; test: Inhibition of human CDK2/cyclin E; assay type: protein-complex assay
[39] = target: T6, Cyclin-dependent kinase 2; test: Binding affinity to CDK2 (unknown origin) assessed as association rate constant
[40] = target: T6, Cyclin-dependent kinase 2; test: Binding affinity to CDK2 (unknown origin) assessed as dissociation rate constant
[41] = target: T6, Cyclin-dependent kinase 2; test: Binding affinity to CDK2 (unknown origin) assessed as inactivation constant

Cyclin-dependent kinase 5, sequence (Q00535 whole entry): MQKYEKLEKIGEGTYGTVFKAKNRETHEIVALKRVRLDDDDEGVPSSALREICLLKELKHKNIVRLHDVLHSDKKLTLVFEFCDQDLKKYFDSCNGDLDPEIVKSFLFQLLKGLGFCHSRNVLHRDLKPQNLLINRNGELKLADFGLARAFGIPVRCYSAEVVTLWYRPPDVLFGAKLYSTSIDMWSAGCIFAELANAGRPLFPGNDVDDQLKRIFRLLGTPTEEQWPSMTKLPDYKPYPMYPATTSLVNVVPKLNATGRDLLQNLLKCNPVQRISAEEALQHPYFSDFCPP
Cyclin-dependent kinase 8, sequence (P49336 whole entry): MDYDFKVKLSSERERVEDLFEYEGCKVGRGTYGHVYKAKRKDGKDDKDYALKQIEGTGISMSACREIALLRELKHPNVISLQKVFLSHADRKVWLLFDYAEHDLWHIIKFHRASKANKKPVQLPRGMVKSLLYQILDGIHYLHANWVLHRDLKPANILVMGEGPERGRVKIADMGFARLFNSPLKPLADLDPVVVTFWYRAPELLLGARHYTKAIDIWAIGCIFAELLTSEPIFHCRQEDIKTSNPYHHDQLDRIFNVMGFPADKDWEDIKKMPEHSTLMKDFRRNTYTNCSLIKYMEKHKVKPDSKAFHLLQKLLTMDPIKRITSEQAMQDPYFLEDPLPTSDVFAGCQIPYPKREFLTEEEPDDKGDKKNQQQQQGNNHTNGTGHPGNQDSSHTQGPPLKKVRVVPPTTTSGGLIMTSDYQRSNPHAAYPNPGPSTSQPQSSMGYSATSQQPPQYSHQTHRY
T1 sequence (P51946 whole entry): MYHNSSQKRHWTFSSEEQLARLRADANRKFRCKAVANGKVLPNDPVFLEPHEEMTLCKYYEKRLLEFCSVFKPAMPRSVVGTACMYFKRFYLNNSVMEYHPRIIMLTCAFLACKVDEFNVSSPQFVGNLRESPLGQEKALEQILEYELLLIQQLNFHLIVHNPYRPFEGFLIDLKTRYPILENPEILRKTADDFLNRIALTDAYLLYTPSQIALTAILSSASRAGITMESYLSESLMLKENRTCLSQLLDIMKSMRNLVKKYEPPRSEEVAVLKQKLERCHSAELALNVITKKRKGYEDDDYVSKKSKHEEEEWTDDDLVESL
T1 sequence (P50613 whole entry): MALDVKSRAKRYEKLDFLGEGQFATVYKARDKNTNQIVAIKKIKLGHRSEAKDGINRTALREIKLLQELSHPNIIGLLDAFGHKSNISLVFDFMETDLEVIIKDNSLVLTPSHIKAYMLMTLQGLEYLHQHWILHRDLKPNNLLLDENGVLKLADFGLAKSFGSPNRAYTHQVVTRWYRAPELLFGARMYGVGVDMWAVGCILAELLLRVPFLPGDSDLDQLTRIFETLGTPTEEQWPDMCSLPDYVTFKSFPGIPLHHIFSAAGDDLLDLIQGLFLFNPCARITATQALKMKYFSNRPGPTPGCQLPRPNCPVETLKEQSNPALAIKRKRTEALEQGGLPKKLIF
T1 sequence (P51948 whole entry, further chain): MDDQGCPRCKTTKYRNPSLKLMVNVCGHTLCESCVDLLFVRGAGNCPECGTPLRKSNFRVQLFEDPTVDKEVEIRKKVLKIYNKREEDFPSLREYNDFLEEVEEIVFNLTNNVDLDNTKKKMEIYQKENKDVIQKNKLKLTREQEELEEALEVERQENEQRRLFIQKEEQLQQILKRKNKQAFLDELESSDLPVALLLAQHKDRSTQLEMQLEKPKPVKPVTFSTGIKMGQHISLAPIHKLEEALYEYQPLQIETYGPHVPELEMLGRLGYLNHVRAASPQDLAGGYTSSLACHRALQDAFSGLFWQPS
T3 sequence (O60563 whole entry): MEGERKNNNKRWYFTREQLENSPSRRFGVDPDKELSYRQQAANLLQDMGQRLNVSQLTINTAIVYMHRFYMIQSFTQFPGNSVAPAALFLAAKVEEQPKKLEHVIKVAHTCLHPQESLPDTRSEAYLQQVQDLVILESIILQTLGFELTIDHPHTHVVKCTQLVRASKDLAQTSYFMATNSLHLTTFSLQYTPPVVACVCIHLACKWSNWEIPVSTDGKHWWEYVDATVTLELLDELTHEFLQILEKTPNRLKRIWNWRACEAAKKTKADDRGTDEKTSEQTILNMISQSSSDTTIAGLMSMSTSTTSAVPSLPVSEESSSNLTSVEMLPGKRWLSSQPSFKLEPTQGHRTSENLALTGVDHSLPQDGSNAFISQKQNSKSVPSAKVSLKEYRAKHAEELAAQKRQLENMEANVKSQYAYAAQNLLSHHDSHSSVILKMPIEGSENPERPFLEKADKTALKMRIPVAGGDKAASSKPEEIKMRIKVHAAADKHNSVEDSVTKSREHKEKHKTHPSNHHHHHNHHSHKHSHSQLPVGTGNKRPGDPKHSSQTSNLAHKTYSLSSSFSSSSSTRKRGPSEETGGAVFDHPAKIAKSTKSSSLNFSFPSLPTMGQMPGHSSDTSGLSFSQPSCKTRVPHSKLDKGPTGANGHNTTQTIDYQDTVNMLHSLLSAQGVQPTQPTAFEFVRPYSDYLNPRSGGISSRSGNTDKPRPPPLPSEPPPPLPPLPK
T3 sequence (P50750 whole entry): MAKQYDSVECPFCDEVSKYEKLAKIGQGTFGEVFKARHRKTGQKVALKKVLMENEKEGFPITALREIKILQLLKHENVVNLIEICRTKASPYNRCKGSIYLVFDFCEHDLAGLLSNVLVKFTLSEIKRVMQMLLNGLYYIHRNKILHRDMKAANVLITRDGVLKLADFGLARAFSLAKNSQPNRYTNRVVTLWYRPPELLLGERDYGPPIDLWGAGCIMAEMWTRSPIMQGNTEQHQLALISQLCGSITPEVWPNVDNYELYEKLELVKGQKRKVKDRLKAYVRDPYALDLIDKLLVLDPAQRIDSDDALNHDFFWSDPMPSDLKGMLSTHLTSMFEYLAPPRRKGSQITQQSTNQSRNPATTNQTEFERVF
T2 sequence (O75909 whole entry): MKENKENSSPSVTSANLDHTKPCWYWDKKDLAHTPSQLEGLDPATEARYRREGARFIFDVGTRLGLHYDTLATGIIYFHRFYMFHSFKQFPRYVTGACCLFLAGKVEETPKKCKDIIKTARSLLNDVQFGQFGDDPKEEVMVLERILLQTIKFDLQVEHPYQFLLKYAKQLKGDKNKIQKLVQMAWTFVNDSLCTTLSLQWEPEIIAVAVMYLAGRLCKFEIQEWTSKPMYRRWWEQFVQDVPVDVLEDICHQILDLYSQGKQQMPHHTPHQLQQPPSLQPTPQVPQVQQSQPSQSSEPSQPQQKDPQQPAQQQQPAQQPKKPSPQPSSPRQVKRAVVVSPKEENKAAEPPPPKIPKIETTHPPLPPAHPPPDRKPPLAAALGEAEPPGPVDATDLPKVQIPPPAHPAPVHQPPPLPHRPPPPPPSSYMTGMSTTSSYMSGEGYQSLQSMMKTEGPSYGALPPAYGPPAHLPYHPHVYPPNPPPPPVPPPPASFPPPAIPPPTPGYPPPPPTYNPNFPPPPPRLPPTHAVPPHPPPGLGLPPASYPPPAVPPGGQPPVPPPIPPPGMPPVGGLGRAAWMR
T2 sequence (Q9NYV4 whole entry): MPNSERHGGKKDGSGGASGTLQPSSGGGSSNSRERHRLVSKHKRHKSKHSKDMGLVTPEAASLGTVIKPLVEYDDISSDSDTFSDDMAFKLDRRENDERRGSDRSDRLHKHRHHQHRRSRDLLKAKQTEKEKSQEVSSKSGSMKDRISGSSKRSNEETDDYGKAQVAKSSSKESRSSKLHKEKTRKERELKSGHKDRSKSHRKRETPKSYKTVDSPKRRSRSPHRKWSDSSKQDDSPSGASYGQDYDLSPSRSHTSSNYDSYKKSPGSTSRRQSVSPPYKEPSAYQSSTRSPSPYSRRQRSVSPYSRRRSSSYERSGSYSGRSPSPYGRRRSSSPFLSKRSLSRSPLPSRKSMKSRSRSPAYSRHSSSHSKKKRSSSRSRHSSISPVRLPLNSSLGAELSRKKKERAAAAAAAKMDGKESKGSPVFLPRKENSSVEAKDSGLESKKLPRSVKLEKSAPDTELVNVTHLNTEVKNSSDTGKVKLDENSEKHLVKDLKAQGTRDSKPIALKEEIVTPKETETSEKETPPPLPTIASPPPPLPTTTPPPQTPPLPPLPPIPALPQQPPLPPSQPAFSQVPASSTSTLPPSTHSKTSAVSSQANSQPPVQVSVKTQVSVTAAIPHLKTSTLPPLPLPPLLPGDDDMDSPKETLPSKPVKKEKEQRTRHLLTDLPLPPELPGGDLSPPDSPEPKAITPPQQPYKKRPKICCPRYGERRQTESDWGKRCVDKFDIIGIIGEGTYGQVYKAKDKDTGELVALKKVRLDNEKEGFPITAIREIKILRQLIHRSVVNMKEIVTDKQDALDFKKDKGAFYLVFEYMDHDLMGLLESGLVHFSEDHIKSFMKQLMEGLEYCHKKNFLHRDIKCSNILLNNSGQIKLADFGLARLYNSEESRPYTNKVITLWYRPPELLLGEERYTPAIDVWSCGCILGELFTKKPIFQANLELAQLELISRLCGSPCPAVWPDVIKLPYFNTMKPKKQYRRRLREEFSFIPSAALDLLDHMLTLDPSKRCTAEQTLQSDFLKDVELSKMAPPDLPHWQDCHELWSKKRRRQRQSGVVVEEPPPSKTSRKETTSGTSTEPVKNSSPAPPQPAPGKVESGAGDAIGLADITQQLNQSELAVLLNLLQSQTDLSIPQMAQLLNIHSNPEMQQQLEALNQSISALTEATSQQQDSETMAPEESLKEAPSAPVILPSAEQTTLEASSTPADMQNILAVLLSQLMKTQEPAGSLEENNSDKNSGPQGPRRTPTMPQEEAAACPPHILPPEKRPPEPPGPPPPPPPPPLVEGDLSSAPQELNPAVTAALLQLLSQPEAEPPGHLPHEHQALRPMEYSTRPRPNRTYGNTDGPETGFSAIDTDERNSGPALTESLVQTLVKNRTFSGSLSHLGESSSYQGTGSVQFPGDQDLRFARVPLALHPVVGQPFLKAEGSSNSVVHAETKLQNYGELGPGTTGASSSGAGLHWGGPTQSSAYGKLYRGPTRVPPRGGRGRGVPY
CDK9/Cyclin-H, sequence (P51946 whole entry): as the sequence (P51946 whole entry) above
CDK9/Cyclin-H, sequence (P50750 whole entry): as the sequence (P50750 whole entry) above

Q: What does the source list for `CN(C)C/C=C/C(=O)Nc1ccc(C(=O)N[C@H]2CCC[C@@H](Nc3ncc(Cl)c(-c4c[nH]c5ccccc45)n3)C2)cc1`?
A: EC50 [1]: 48 nM; IC50 [2]: 312 nM; IC50 [3]: 627 nM; Kinact [4]: 4.8 h⁻¹; Ki [5]: 105 nM; Ratio [6]: 0.013 µM⁻¹ s⁻¹; EC50 [7]: 13 nM; clearance [8]: 17 mL/min/kg; IC50 [9]: 112 nM; IC50 [10]: 908 nM

Q: Which results are given for `CN(C)C/C=C/C(=O)Nc1ccc(C(=O)N[C@@]2(C)CCC[C@@H](Nc3ncc(Cl)c(-c4c[nH]c5ccccc45)n3)C2)nc1`?
A: EC50 [1]: 13 nM; IC50 [2]: 20 nM; IC50 [3]: 914 nM; Ki [5]: 17.4 nM; EC50 [7]: 8 nM; clearance [8]: 6 mL/min/kg; IC50 [9]: 84 nM; IC50 [10]: 590 nM

Q: For `CC(C)c1cnn2c(NCc3ccccc3)cc(NC[C@H]3CCNC[C@@H]3O)nc12` [CT-7001], which inhibition in vivo at 100 mg/kg [11] is on record?
A: 60%

Q: And the IC50 [12]?
A: 34000 nM

Q: And the IC50 [13]?
A: 1200 nM

Q: What about the IC50 [14] of the same compound?
A: 49000 nM

Q: And the IC50 [15]?
A: 9400 nM

Q: For `C=CC(=O)Nc1ccc(C(=O)Nc2n[nH]c3c2CN(C(=O)N[C@H](CN(C)C)c2ccccc2)C3(C)C)cc1`, which IC50 [16] is on record?
A: 53 nM

Q: Which results are given for `CC(C)c1cnn2c(NCc3ccccc3)cc(NCCCCCCN)nc12`?
A: IC50 [12]: 47000 nM; IC50 [13]: 4200 nM; IC50 [14]: 33000 nM; IC50 [15]: 3000 nM

Q: Which IC50 [17] does the source give for `CC[C@H](Nc1nc(NCc2cnc(C)cc2C)c2ncn(C(C)C)c2n1)[C@@H](C)O` [CYC-065] here?
A: 5 nM

Q: What about the IC50 [15] of the same compound?
A: 23 nM

Q: Which IC50 [18] does the source give for `CN(C)C/C=C/C(=O)Nc1cccc(S(=O)(=O)N2CCC(NC(=O)c3n[nH]cc3NC(=O)c3c(Cl)cc(Cl)cc3Cl)CC2)c1` here?
A: 88 nM

Q: Which results are given for `CN(C)C/C=C/C(=O)Nc1ccc(C(=O)N[C@H]2CCC[C@@H](Nc3ncc(Cl)c(-c4c[nH]c5ccccc45)n3)C2)nc1`?
A: EC50 [1]: 4 nM; IC50 [3]: 226 nM; Kinact [4]: 11.3 h⁻¹; Ki [5]: 62.5 nM; Ratio [6]: 0.05 µM⁻¹ s⁻¹; EC50 [7]: 3 nM; clearance [8]: 29 mL/min/kg; IC50 [9]: 23 nM; IC50 [10]: 205 nM

Q: Which results are given for `C[C@@]1(O)CCC[C@H]1n1c(=O)c(C(F)F)cc2cnc(NC3CCN(S(C)(=O)=O)CC3)nc21` [EBVACICLIB]?
A: IC50 [19]: 48 nM; IC50 [20]: 48 nM

Q: Which IC50 [21] does the source give for `O=C1Nc2ccc([N+](=O)[O-])cc2/C1=C1/Nc2ccc(O)cc2/C1=N\O` here?
A: 711 nM

Q: What about the IC50 [22] of the same compound?
A: 2 to 60 nM

Q: What about the IC50 [23] of the same compound?
A: 669 nM

Q: What about the IC50 [24] of the same compound?
A: 856 nM

Q: What does the source list for `C=CC(=O)N1CCN(C(=O)OC(C)(C)C)c2ccccc21`?
A: inhibition [25]: 2%; inhibition [26]: 83%

Q: Which IC50 [27] does the source give for `CN1CCN(c2ccc(Nc3ncc4cc5n(c4n3)C3(CCCCC3)CNC5=O)nc2)CC1` [TRILACICLIB] here?
A: 30 nM

Q: With `C=CC(=O)Nc1cccc(Nc2cc(N3CCCC[C@H]3CCO)nc3c(CC)cnn23)c1` as the compound, how does the IC50 [28] read?
A: 20 nM

Q: What about the IC50 [29] of the same compound?
A: 932 nM

Q: What does the source list for `CN(C)C/C=C/C(=O)Nc1ccc(C(=O)Nc2cccc(Nc3ncc(Cl)c(-c4c[nH]c5ccccc45)n3)c2)cc1`?
A: IC50 [2]: 371 nM; EC50 [7]: 38 nM; clearance [8]: 129 mL/min/kg; IC50 [30]: 893 nM; IC50 [31]: 628 nM

Q: Which IC50 [13] does the source give for `CC(C)c1cnn2c(NCc3ccccc3)cc(N[C@@H](CO)[C@H](O)CO)nc12` here?
A: 90 nM

Q: For `CN(C)C/C=C/C(=O)Nc1ccc(C(=O)N2CCC[C@@H](Nc3ncc(Cl)c(-c4c[nH]c5ccccc45)n3)C2)cc1`, which IC50 [3] is on record?
A: 834 nM

Q: What does the source list for `C=CC(=O)N1CCN(C(=O)OC)c2ccccc21`?
A: inhibition [25]: -2%; inhibition [26]: 5%

Q: For `CC(C)N1CCN(c2ccc(Nc3ncc4cc5n(c4n3)C3(CCCCC3)CNC5=O)nc2)CC1` [LEROCICLIB], which Kd [32] is on record?
A: 0.2 nM

Q: What about the Kd [33] of the same compound?
A: 0.7 nM

Q: What about the Kd [34] of the same compound?
A: 22 nM

Q: What about the Kd [35] of the same compound?
A: 6.5 nM

Q: What about the IC50 [36] of the same compound?
A: 280 nM

Q: And the EC50 [37]?
A: < 100 nM

Q: And the EC50 [38]?
A: < 100 nM

Q: Which K [39] does the source give for `C=CS(=O)(=O)c1ccc(Nc2nc(OCC3CCCCC3)c3nc[nH]c3n2)cc1` here?
A: 0.55 ×10⁶ /M/s

Q: What about the K [40] of the same compound?
A: 0.07 s⁻¹

Q: What about the Kinact [41] of the same compound?
A: 5 ×10³ /M/s
